Data on two compounds can be found in patent US4590209A, “Alkoxy-acyl carnitines and pharmaceutical compositions containing same” (Sigma-Tau Industrie Farmaceutiche Riunite S.p.A., priority 1980, dated 1986).

Counter-ions that a name gives are not always drawn.

Data set [1] concerns adrenaline. Nature of the data set: Adrenaline-antagonizing effect (adrenaline-induced mortality). Type of data set: in vivo, male Albino Swiss mice. Conditions: mice, adrenaline after 30 minutes, mortality checked for 36 hours. How it is done:
Groups of ten male Albino Swiss mice, weighing 12-22 g, were intraperitoneally administered either with the compounds of the present invention or with saline (control) and, after 30 minutes, with adrenaline (treated) at a dose capable of bringing about death to 100% of the control animals due to ventricular fibrillation and cardiac lesions ensuing from increase in frequency, pressure and oxygen uptake from the myocardium.
Mortality was checked for 36 hours and the effect of the compounds expressed as percentage of surviving animals, is shown in the Table.

The test system of data set [2] is mice. Nature of the data set: Antiarrhythmic / antifibrillatory effect, aconitine-induced arrhythmia (Nwangwu et al.). Type of data set: in vivo. Here is the method: In order to evaluate the antiarrhythmic activity of the carnitine derivatives of this invention studied with in vivo tests in addition to and in comparison with the currently employed in vitro tests, the method disclosed by Nwangwu et al. (Arch. Inc. Pharmacodyn., 1977, 229, 219) was used.
According to this method an aconitine solution is injected into the caudal vein of mice and the onset time of arrhythmia and tachycardia after 2 to 60 minutes from administration of the compounds under examination is recorded.
The antiarrhythmic activity calculated from the increase in the latency time of the onset of the arrhythmias of the treated animals in comparison with the controls, is illustrated in the Table.

Data set [3] is described as follows: Acute toxicity (LD50), Weil method. The settings on record: mouse, in vivo, ip; mice, intraperitoneal; read-out: i.p. LD50. The text has this: Acute toxicity was investigated by using the method disclosed by Weil C. S. in "Tables for convenient calculation of median-effective dose (LD50 or ED50) and instructions in their use", Biometrics, 249-253, 1952.
The tolerance of the compounds under examination was investigated in mice after administration by the intraperitoneal or oral route. […] (see the Table).

In data set [4] the test system is rabbit isolated heart. Nature of the data set: Inotropic effect on isolated rabbit heart (Langendorff) after anoxia. The settings on record: dose 10^-5 gl^-1, 10 minutes from the interruption of the anoxic period, percentage increase against controls. Here is the method: Rabbit hearts isolated by the Langendorff method were perfused with oxygenized Ringer solution at 38.2° C. The isometric contractions, electrogardiogram and coronary flow were recorded using a "Battaglia-Rangoni" polygraph. By removing the oxygen from the perfusion fluid, metabolic damage was induced in the cardiac muscle, up to an 80% reduction in the cardiac contractile force.
Under these conditions of prolonged anoxia the aerobic glycolysis of the myocardium is slowed down, accompanied by the storage of acid catabolites due to both the accumulation of pyruvic acid and its conversion to lactic acid which cannot be utilized because of the depression of pyridine enzymes, such as LDH (lactodehydogenase). This has repercussions on the anaerobic glycolysis affecting an ever increasing number of enzymes, accompanied by a progressive and increasingly critical exhaustion of the myocardium. Thus a whole series of cardiac muscle fatigue levels occurs which can be observed by the behavior of the examined parameters, namely the contractile force, coronary flow, heart rate and cardiac rhythm. As soon as the contractile force was reduced by 80%, the perfusion fluid was once again oxygenized either without adding other compounds (controls) or with the addition of the compounds under examination.
In the Table there are shown the percentage value of increase against the controls.

Regarding `CCOCCC(=O)OC(CC(=O)O)C[N+](C)(C)C` (centres unmarked) [R = 3-ethoxypropionyl, 3-ethoxypropionyl carnitine hydrochloride], the “Antiadrenaline activity, % mortality reduction” value in data set [1] (dose 450 mg kg^-1 i.p.) was found to be 75%. The “Antifibrillatory activity, % reduction” value in data set [2] (dose 300 mg kg^-1 i.v.) worked out at 80%. Also, in data set [3], the LD50 was 1300 mg/kg. Besides, the “Inotropic effect, % of controls” value in data set [4] was “+95%”.

`COCCCC(=O)OC(CC(=O)O)C[N+](C)(C)C` (centres unmarked) [R = 4-methoxybutyryl, 4-methoxybutyryl carnitine]: in data set [1] (dose 50 mg kg^-1 i.p.), the “Antiadrenaline activity, % mortality reduction” value was found to be 78%. Moreover, the “Antifibrillatory activity, % reduction” value in data set [2] (dose 25 mg kg^-1 i.v.) is listed as 85%. The LD50 in data set [3] worked out at 1850 mg/kg. In addition, the “Inotropic effect, % of controls” value in data set [4] is on record as “+85%”.
